Measured values taken from paper PMC4333176, “Heterologous expression and biochemical characterization of a highly active and stable chloroplastic CuZn-superoxide dismutase from Pisum sativum” (BMC Biotechnology, 2015).

T1: PschSOD (recombinant chloroplastic CuZn-SOD) (Lathyrus oleraceus, UniProt P11964)
T1 construct: gene SODCP; mature form without chloroplast transit peptide (forward primer encodes MAAKKAVA), pET-28a His-tag kept, E. coli BL21 (DE3), Cu/Zn supplemented, ~18 kDa subunit, homodimer 36-38 kDa
T1 sequence (P11964 49-202): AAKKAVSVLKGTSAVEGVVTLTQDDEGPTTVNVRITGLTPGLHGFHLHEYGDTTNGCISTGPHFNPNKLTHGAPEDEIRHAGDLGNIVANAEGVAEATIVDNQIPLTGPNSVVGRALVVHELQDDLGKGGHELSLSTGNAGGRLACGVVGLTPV


How the values were obtained:
[1] = molecular target: T1, PschSOD (recombinant chloroplastic CuZn-SOD); experiment: pyrogallol autoxidation SOD assay, residual activity; type: biochemical; settings: superoxide from pyrogallol autoxidation; no constant
[2] = molecular target: the molecule itself; experiment: SEC; analytical gel filtration on a Bio-Sil 250 column, 5 mM K-PO4 pH 7.2 with 150 mM NaCl, calibrated with standard proteins; native mass compared with subunit mass on 15% SDS-PAGE

Molecule | pyrogallol autoxidation SOD assay, residual activity [1] | stoichiometry N [2]
[O]O [O2^∙−, superoxide anion] | Superoxide dismutase specific activity of PschSOD, assayed by pyrogallol method | –
Pisum sativum chloroplastic CuZn-superoxide dismutase (PschSOD), recombinant, without chloroplast transit peptide (enzyme, Pisum sativum (pea), UniProt P11964 49-202, looked up, the forward primer (NdeI, [residues removed]) encodes M-AAKKAVA, the reverse primer ends at ...GLTPV and the stop codon; Cloned NdeI/BamHI into pET-28a; One Cu and one Zn per subunit (about 1.84 Cu and 1.6 Zn per dimer); also called Pisum sativum SOD II; pea chloroplastic SOD; source: E. coli BL21 (DE3), pET-28a, purified (Ni-NTA, desalting, buffer exchange, dialysis)) AAKKAVSVLKGTSAVEGVVTLTQDDEGPTTVNVRITGLTPGLHGFHLHEYGDTTNGCISTGPHFNPNKLTHGAPEDEIRHAGDLGNIVANAEGVAEATIVDNQIPLTGPNSVVGRALVVHELQDDLGKGGHELSLSTGNAGGRLACGVVGLTPV | – | 2
